According to patent US9963464B2, “Macrocyclic compounds” (Bayer Pharma Aktiengesellschaft, priority 2014, dated 2018):
Read-outs that look alike come from different tables or passages of the source.

Assays:
CDK2/CycE = molecular target: T1, CDK2/CycE (Homo sapiens, UniProt P24941); assay: CDK2/CycE high ATP kinase assay (TR-FRET, Method 2b); format: biochemical; details: 2 mM ATP
T1 construct: GST; purchased ProQinase GmbH (Freiburg, Germany); host or cells: insect cells (Sf9)
Description: 2b. CDK2/CycE High ATP Kinase Assay:
CDK2/CycE-inhibitory activity of compounds of the present invention at 2 mM adenosine-tri-phosphate (ATP) was quantified employing the CDK2/CycE TR-FRET (TR-FRET=Time Resolved Fluorescence Resonance Energy Transfer) assay as described in the following paragraphs.
Recombinant fusion proteins of GST and human CDK2 and of GST and human CycE, expressed in insect cells (Sf9) and purified by Glutathion-Sepharose affinity chromatography, were purchase from ProQinase GmbH (Freiburg, Germany). As substrate for the kinase reaction biotinylated peptide biotin-Ttds-YISPLKSPYKISEG (C-terminus in amid form) was used which can be purchased e.g. from the company JERINI peptide technologies (Berlin, Germany).
For the assay 50 nl of a 100 fold concentrated solution of the test compound in DMSO was pipetted into a black low volume 384 well microtiter plate (Greiner Bio-One, Frickenhausen, Germany), 2 μl of a solution of CDK2/CycE in aqueous assay buffer [50 mM Tris/HCl pH 8.0, 10 mM MgCl2, 1.0 mM dithiothreitol, 0.1 mM sodium ortho-vanadate, 0.01% (v/v) Nonidet-P40 (Sigma)] were added and the mixture was incubated for 15 min at 22° C. to allow pre-binding of the test compounds to the enzyme before the start of the kinase reaction. […] The concentration of CDK2/CycE was adjusted depending of the activity of the enzyme lot and was chosen appropriate to have the assay in the linear range, typical concentrations were in the range of 15 ng/ml. The reaction was stopped by the addition of 5 μl of a solution of TR-FRET detection reagents (0.2 μM streptavidine-XL665 [Cisbio Bioassays, Codolet, France] and 1 nM anti-RB(pSer807/pSer811)-antibody from BD Pharmingen [#558389] and 1.2 nM LANCE EU-W1024 labeled anti-mouse IgG antibody [Perkin-Elmer, product no. AD0077, as an alternative a Terbium-cryptate-labeled anti-mouse IgG antibody from Cisbio Bioassays can be used]) in an aqueous EDTA-solution (100 mM EDTA, 0.2% (w/v) bovine serum albumin in 100 mM HEPES pH 7.5).
The resulting mixture was incubated 1 h at 22° C. to allow the formation of complex between the phosphorylated biotinylated peptide and the detection reagents. Subsequently the amount of phosphorylated substrate was evaluated by measurement of the resonance energy transfer from the Eu-chelate to the streptavidine-XL. Therefore, the fluorescence emissions at 620 nm and 665 nm after excitation at 350 nm were measured in a TR-FRET reader, e.g. a Rubystar (BMG Labtechnologies, Offenburg, Germany) or a Viewlux (Perkin-Elmer). The ratio of the emissions at 665 nm and at […] was taken as the measure for the amount of phosphorylated substrate. The data were normalised (enzyme reaction without inhibitor=0% inhibition, all other assay components but no enzyme=100% inhibition).

NCI-H460 cells = assay: Proliferation assay NCI-H460; format: cell-based, human; details: 4 days, crystal violet, read-out: Inhibition of NCI-H460 cell proliferation IC50
Description: Cultivated tumour cells (HeLa, human cervical tumour cells, ATCC CCL-2; NCI-H460, human non-small cell lung carcinoma cells, ATCC HTB-177; A2780, human ovarian carcinoma cells, ECACC #93112519; DU 145, hormone-independent human prostate carcinoma cells, ATCC HTB-81; HeLa-MaTu-ADR, multidrug-resistant human cervical carcinoma cells, EPO-GmbH Berlin; Caco-2, human colorectal carcinoma cells, ATCC HTB-37; B16F10, mouse melanoma cells, ATCC CRL-6475) were plated at a density of 5,000 cells/well (DU145, HeLa-MaTu-ADR), 3,000 cells/well (NCI-H460, HeLa), 2,500 cells/well (A2780), 1,500 cells/well (Caco-2), or 1,000 cells/well (B16F10) in a 96-well multititer plate in 200 μL of their respective growth medium supplemented 10% fetal calf serum. After 24 hours, the cells of one plate (zero-point plate) were stained with crystal violet (see below), while the medium of the other plates was replaced by fresh culture medium (200 μl), to which the test substances were added in various concentrations (0 μM, as well as in the range of 0.001-10 μM). The cells were incubated for 4 days in the presence of test substances. Cell proliferation was determined by staining the cells with crystal violet: the cells were fixed by adding 20 μl/measuring point of an 11% glutaric aldehyde solution for 15 minutes at room temperature. After three washing cycles of the fixed cells with water, the plates were dried at room temperature. The cells were stained by adding 100 μl/measuring point of a 0.1% crystal violet solution (pH 3.0). After three washing cycles of the stained cells with water, the plates were dried at room temperature. The dye was dissolved by adding 100 μl/measuring point of a 10% acetic acid solution. The extinction was determined by photometry at a wavelength of 595 nm. The change of cell number, in percent, was calculated by normalization of the measured values to the extinction values of the zero-point plate (=0%) and the extinction of the untreated (0 μm) cells (=100%). The IC50 values (inhibitory concentration at 50% of maximal effect) were determined by means of a 4 parameter fit. Non-adherent MOLM-13 human acute myeloid leukemia cells (DSMZ ACC 554) were seeded at a density of 5,000 cells/well in a 96-well multititer plate in 100 μL of growth medium supplemented 10% fetal calf serum. After 24 hours, cell viability of one plate (zero-point plate) was determined with the Cell Titre-Glo Luminescent Cell Viability Assay (Promega), while 50 μL of test compound containing medium was added to the wells of the other plates (final concentrations in the range of 0.001-1 μM and DMSO controls). Cell viability was assessed after 72-hour exposure with the Cell Titre-Glo Luminescent Cell Viability Assay (Promega). IC50 values (inhibitory concentration at 50% of maximal effect) were determined by means of a 4 parameter fit on measurement data which were normalized to vehicle (DMSO) treated cells (=100%) and measurement readings taken immediately before compound exposure (=0%).

Compound | IC50 (CDK2/CycE) | IC50 (NCI-H460 cells; Homo sapiens, NCI-H460, 96 h) | IC50 (NCI-H460 cells; trifluoroacetate) | IC50 (NCI-H460 cells)
CS(=O)(=O)N=S(C)(=O)Cc1cc2nc(c1)OCCCOc1cc(F)ccc1-c1cc(ncc1F)N2 (racemic) [Example 22, (rac)-N-[{[15,19-difluoro-3,4-dihydro-2H,11H-10,6-(azeno)-12,16-(metheno)-1,5,11,13-benzodioxadiazacyclooctadecin-8-yl]methyl}(methyl)oxido-λ^6-sulfanylidene]methanesulfonamide] | 195 nM | 36 nM | – | –
CS(=O)(Cc1cc2nc(c1)OCCCOc1cc(F)ccc1-c1cc(ncc1F)N2)=NS(=O)(=O)CCN (racemic) [Example 23, (rac)-2-amino-N-[{[15,19-difluoro-3,4-dihydro-2H,11H-10,6-(azeno)-12,16-(metheno)-1,5,11,13-benzodioxadiazacyclooctadecin-8-yl]methyl}(methyl)oxido-λ^6-sulfanylidene]ethanesulfonamide] | 272 nM | 741 nM | – | –
CS(=O)(Cc1cc2nc(c1)OCCCOc1cc(F)ccc1-c1cc(ncc1F)N2)=NS(=O)(=O)CCN.O=C(O)C(F)(F)F (racemic) [Example 24, (rac)-2-{[{[15,19-difluoro-3,4-dihydro-2H,11H-10,6-(azeno)-12,16-(metheno)-1,5,11,13-benzodioxadiazacyclooctadecin-8-yl]methyl}(methyl)oxido-λ^6-sulfanylidene]sulfamoyl}ethanaminium trifluoroacetate] | 166 nM | – | 391 nM | –
CS(=O)(Cc1cc2nc(c1)OCCCOc1cc(F)ccc1-c1cc(ncc1F)N2)=NC(=O)OCCN (racemic) [Example 25, (rac)-2-aminoethyl [{[15,19-difluoro-3,4-dihydro-2H,11H-10,6-(azeno)-12,16-(metheno)-1,5,11,13-benzodioxadiazacyclooctadecin-8-yl]methyl}(methyl)oxido-λ^6-sulfanylidene]carbamate] | 18 nM | 109 nM | – | –
CS(=N)(=O)Cc1cc2nc(c1)OCCCOc1cc(F)ccc1-c1cc(ncc1F)N2 (single isomer, unassigned; enantiomer 1) [Example 6, 15,19-Difluoro-8-[(S-methylsulfonimidoyl)methyl]-3,4-dihydro-2H,11H-10,6-(azeno)-12,16-(metheno)-1,5,11,13-benzodioxadiazacyclooctadecine; Enantiomer 1] | 38.3 nM | 14 nM | – | –
CS(=N)(=O)Cc1cc2nc(c1)OCCCOc1cc(F)ccc1-c1cc(ncc1F)N2 (single isomer, unassigned; enantiomer 2) [Example 7, 15,19-Difluoro-8-[(S-methylsulfonimidoyl)methyl]-3,4-dihydro-2H,11H-10,6-(azeno)-12,16-(metheno)-1,5,11,13-benzodioxadiazacyclooctadecine; Enantiomer 2] | 50.4 nM | – | – | 17 nM
CSCc1cc2cc(c1)OCCCOc1cc(F)ccc1-c1nc(ncc1F)N2 [Example 2, 15,19-Difluoro-8-[(methylsulfanyl)methyl]-3,4-dihydro-2H,11H-12,16-(azeno)-10,6-(metheno)-1,5,11,13-benzodioxadiazacyclooctadecine] | 640 nM | 56 nM | – | –
CSCc1cc2nc(c1)OCCCOc1cc(F)ccc1-c1cc(ncc1F)N2 [Example 3, 15,19-Difluoro-8-[(methylsulfanyl)methyl]-3,4-dihydro-2H,11H-10,6-(azeno)-12,16-(metheno)-1,5,11,13-benzodioxadiazacyclooctadecine] | 128 nM | 39 nM | – | –
CS(=O)(=O)Cc1cc2nc(c1)OCCCOc1cc(F)ccc1-c1cc(ncc1F)N2 [Example 8, 15,19-difluoro-8-[(methylsulfonyl)methyl]-3,4-dihydro-2H,11H-10,6-(azeno)-12,16-(metheno)-1,5,11,13-benzodioxadiazacyclooctadecine] | 33.6 nM | 20 nM | – | –
CSCc1cc2nc(c1)OCCCCOc1cc(F)ccc1-c1cc(ncc1F)N2 [Example 12, 16,20-Difluoro-9-[(methylsulfanyl)methyl]-2,3,4,5-tetrahydro-12H-11,7-(azeno)-13,17-(metheno)-1,6,12,14-benzodioxadiazacyclononadecine] | 890 nM | 63 nM | – | –
NCCS(=O)(=O)Cc1cc2nc(c1)OCCCOc1cc(F)ccc1-c1cc(ncc1F)N2 [Example 26, 2-({[15,19-difluoro-3,4-dihydro-2H,11H-10,6-(azeno)-12,16-(metheno)-1,5,11,13-benzodioxadiazacyclooctadecin-8-yl]methyl}sulfonyl)ethanamine] | 43.7 nM | 395 nM | – | –
({[15,19-difluoro-3,4-dihydro-2H,11H-10,6-(azeno)-12,16-(metheno)-1,5,11,13-benzodioxadiazacyclooctadecin-8-yl]methyl}sulfonyl)acetic acid [Example 27] | 6.3 nM | – | – | 3040 nM
